Holding throughout (type): physicochemical
The nature of series [1]: Laboratory stability in halogen demand-free water (DFW), iodometric titration. The following applies: for Percent Chlorine Remaining: DFW, 22° C. The protocol:
The stability of 1,3-dichloro-2,2,5,5-tetramethylimidazolidin-4-one (Compound 1) in halogen demand-free water was determined at 22° C. and pH values of 4.5, 7.0, and 9.5, and the results were compared to those for free chlorine as supplied by calcium hypochlorite. The demand-free water (DFW) was prepared by chlorination of distilled, deionized water buffered to the appropriate pH followed by dechlorination (of the excess free chlorine) by exposure to direct sunlight until no free chlorine remained. This treatment insured that all halogen demand in the water was neutralized. Then Compound 1 and calcium hypochlorite were separately dissolved in identical DFW (buffered to an appropriate pH) solutions to the same final total chlorine concentrations (10 milligrams per liter potential positive chlorine). The solutions in separate flasks, which were stoppered with porous, sterile cotton plugs to allow free exchange with laboratory air, were then held at a constant temperature of 22° C. by means of a controlled water bath for a period of several weeks. Aliquots were withdrawn periodically (at least weekly), and the total positive chlorine remaining was determined in triplicate by standard iodometric titration. […]
The stabilities of 1,3-dibromo-2,2,5,5-tetramethylimidazolidin-4-one (Compound 4) and 1-bromo-3-chloro-2,2,5,5-tetramethylimidazolidin-4-one (Compound 5) in halogen demand-free water (DFW) were determined at 22° C. and pH values of 7.0 and 9.5 using the same procedures as discussed under example 9. Given the instability of Compound 1 at pH 4.5 (example 9), it was deemed unnecessary to test compounds 4 and 5 at that pH. The two compounds were dissolved in DFW buffered to the appropriate pH in separate flasks and held at a temperature of 22° C. by means of a constant temperature bath. The starting concentrations of total potential positive halogen in the two solutions were 22.6 milligrams per liter for Compound 4 and 16.25 milligrams per liter for Compound 5; these concentrations represent the molar equivalents in total potential positive halogen to that used for Compound 1 in example 9. The solutions were analyzed in the manner described in example 9.

A further series is described as follows: physchem. Particulars: for solubility: water, solubility in water. The protocol: In method (a) 47.4 grams (0.3 mole) of 2,2,5,5-tetramethylimidazolidine-4-thione was dissolved in 1.2 liters of 3 Normal sodium hydroxide solution (3.6 moles) in a 2 liter flask. The flask and its contents were cooled to 5° C. using an ice bath, and chlorine gas was bubbled into the mixture while stirring until the pH of the solution reached 7.0. The temperature of the mixture was not allowed to rise above 10° C. during this process. The N,N'-dichloroimidazolidin-4-one product precipitated as a white solid. Following addition of 800 milliliters of water to the flask, the solid product was recovered by suction filtration. The product was then purified by dissolving it in hexane, allowing the impurities and remaining water to settle, and recovery by evaporation of the volatile hexane layer which was separated from the impurity/water layer. The product yield was 53.9 grams or 85% of that theoretically expected. Elemental analysis of the product (1,3-dichloro-2,2,5,5-tetramethylimidazolidin-4-one) gave the following results: (calculated/found) % carbon 39.82/39.86, % hydrogen 5.73/5.50, % nitrogen 13.27/13.24, and % chlorine 33.59/32.88. […] Analysis of the product by proton NMR and infrared spectroscopy yielded the following results:
5.1 Grams (0.036 mole) of 2,2,5,5-tetramethylimidazolidin-4-one prepared as in example 2 was dissolved in 88 milliliters of 1 Normal sodium hydroxide solution (0.088 mole) in a 250 milliliter flask. While maintaining this mixture at 10° C. or below using an ice bath and stirring, 12.8 grams (0.08 mole) of liquid bromine was added dropwise. The product 1,3-dibromo-2,2,5,5-tetramethylimidazolidin-4-one precipitated from the mixture as a pale yellow solid. The product was recovered by suction filtration and purified by recrystallization from hexane. The product yield was 9.2 grams or 85% of that theoretically expected. Elemental analysis of the product (1,3-dibromo-2,2,5,5-tetramethylimidazolidin-4-one) gave the following results: (calculated/found) % carbon 28.00/27.80, % hydrogen 4.00/4.07, % nitrogen 9.33/9.39, and % bromine 53.33/52.09. […] Analysis of the product by proton NMR and infrared spectroscopy yielded the following results:
6.4 Grams (0.045 mole) of 2,2,5,5-tetramethylimidazolidin-4-one prepared as in example 2 was dissolved in 55 milliliters of 1 Normal sodium hydroxide solution (0.055 mole) in a 250 milliliter flask. While maintaining the reaction mixture at a temperature of 5°-10° C. by use of an ice bath and stirring, 4.0 grams (0.025 mole) of liquid bromine was added dropwise. The reaction mixture was stirred at ice bath temperature for an additional 1 hour and then for 1-2 hours at cold water bath conditions (10°-20° C.). Following cooling the mixture below 10° C. again, 50 milliliters of 1 Normal sodium hydroxide solution (0.05 mole) was added, and chlorine gas was bubbled in while stirring at 5°-10° C. until the pH reached 6-7. The 1-bromo-3-chloro-2,2,5,5-tetramethylimidazolidin-4-one product precipitated as a white solid. The product was recovered by suction filtration and purified by recrystallization from hexane. The product yield was 11.2 grams or 97% of that theoretically expected. Elemental analysis of the product gave the following results: (calculated/found) % carbon 32.88/32.68, % hydrogen 4.70/4.74, % nitrogen 10.96/10.83, % bromine 31.31/33.37, % chlorine 13.89/12.67. The rather high and low found values as compared to the theoretical values for bromine and chlorine, respectively, indicate that the product was contaminated with a small amount of 1,3-dibromo-2,2,5,5-tetramethylimidazolidin-4-one. […] Analysis of the product by proton NMR and infrared spectroscopy yielded the following results: […]

A short description of series [2]: Stability in demand-free water exposed to direct sunlight. The following applies: DFW, direct sunlight, 22-24° C. As for the experimental part:
The stabilities of compounds 1,5, and free chlorine from calcium hypochlorite (Compound 2) in water exposed to direct sunlight were determined. Each compound at the 10 milligrams per liter total chlorine concentration level (or at the molar equivalent for total halogen for Compound 5) was dissolved in 85 milliliters of demand-free water buffered at pH 7.0 in separate 100 milliliter beakers which were placed in a temperature-controlled water bath (22°-24° C.), and the bath containing the solutions was placed on the roof of the chemistry building at Auburn University exposed to direct sunlight during August 1988. Total potential positive halogen assays were made periodically on aliquots withdrawn over a 10 hour period using the standard iodometric titration technique.

Series [3] can be described thus: Stability in synthetic halogen demand water (SDW). The following applies: SDW, 4° C. As for the experimental part:
A synthetic halogen demand water (SDW) was prepared by mixing the following substances with demand-free water (DFW): 375 milligrams per liter of each of the inorganic salts sodium chloride, potassium chloride, calcium chloride, and magnesium chloride; 50 milligrams per liter of Bentonite clay; 30 milligrams per liter of humic acid; 0.01 percent final concentration of heat-treated horse serum; and 5×10^5 cells per milliliter of heat-killed Saccharomyces cerevisiae yeast cells. The SDW solution was buffered with 0.01 Molar borate/sodium hydroxide to a pH of 9.5 and held at 4° C. during the experiments. The conditions of high ionic strength, turbidity, and organic material, and alkaline pH at low temperature, are viewed as a worst-case scenario for disinfection applications and thus should provide the optimum test of stability for the new compounds.
In separate flasks were dissolved compounds 1, 2, 3, and 5 to a starting concentration of 10 milligrams per liter total potential positive chlorine or its molar equivalent (16.25 milligrams per liter) in total potential positive halogen for Compound 5. Aliquots were withdrawn frequently over a period of more than 90 hours, and the percent positive halogen remaining was determined by standard iodometric titration.

Values after ≈ are worked out from the molar mass of the structure shown.

Broadly, the amount remaining is what is left of the initial amount, in per cent. The low end stands for a greater loss, the high end for greater stability. In series [1] (demand-free water, pH 9.5), `CC1(C)C(=O)N(Br)C(C)(C)N1Br` [Compound 4, 1,3-dibromo-2,2,5,5-tetramethylimidazolidin-4-one] showed a share remaining at 23.52 h of 91.4%, an amount remaining at 72.24 h of 71%, an amount remaining at 168 h of 36% and a share remaining at 336 h of 4.8%.

Usually solubility stands for how much of the substance goes into solution per volume. The low end stands for little dissolved substance, the high end for much dissolved substance. For the molecule `CC1(C)C(=O)N(Br)C(C)(C)N1Br` [1,3-dibromo-2,2,5,5-tetramethylimidazolidin-4-one], in the series “physchem”, the solubility in water is given as 0.120 grams in 100 milliliters of water and the solubility is 720 µg/mL (≈ 2.4 mM).

As for `CC1(C)C(=O)N(Cl)C(C)(C)N1Br` [1-bromo-3-chloro-2,2,5,5-tetramethylimidazolidin-4-one], in the series “physchem”, the solubility in water is 0.193 grams in 100 milliliters of water and the concentration in solution (solubility) came to 1020 µg/mL (≈ 3.99 mM).

For the molecule `[Ca+2].[O-]Cl.[O-]Cl` [Compound 2, calcium hypochlorite, reference compound], the “Percent Chlorine Remaining” value in series [1] (pH 4.5 (acetate), 1 week, 10080 min) is on record as 91.8%; in series [1] (pH 4.5 (acetate), 2 weeks, 20160 min) it was 86.2%; in series [1] (pH 4.5 (acetate), 3 weeks, 30240 min) it was 80.8%; in series [1] (pH 4.5 (acetate), 4 weeks, 40320 min), 76.4%; in series [1] (pH 4.5 (acetate), 5 weeks, 50400 min), 71.5%; in series [1] (pH 4.5 (acetate), 6.14 weeks, 61891.2 min), 65.0%. Besides, the “Percent Chlorine Remaining” value was 91.8% in series [1] (pH 7.0 (phosphate), 1 week, 10080 min); 85.0% in series [1] (pH 7.0 (phosphate), 2 weeks, 20160 min); 79.6% in series [1] (pH 7.0 (phosphate), 3 weeks, 30240 min); 70.6% in series [1] (pH 7.0 (phosphate), 4 weeks, 40320 min); 63.4% in series [1] (pH 7.0 (phosphate), 5 weeks, 50400 min); 54.7% in series [1] (pH 7.0 (phosphate), 6.14 weeks, 61891.2 min). The “Percent Chlorine Remaining” value in series [1] (pH 9.5 (borate/NaOH), 1 week, 10080 min) was determined as 88.9%; in series [1] (pH 9.5 (borate/NaOH), 2 weeks, 20160 min), 79.0%; in series [1] (pH 9.5 (borate/NaOH), 3 weeks, 30240 min) it was 71.2%; in series [1] (pH 9.5 (borate/NaOH), 4 weeks, 40320 min) it was 60.3%; in series [1] (pH 9.5 (borate/NaOH), 5 weeks, 50400 min), 50.1%; in series [1] (pH 9.5 (borate/NaOH), 6.14 weeks, 61891.2 min), 38.5%. Also, the “Percent Halogen Remaining” value in series [2] (pH 7.0, 3.0 hrs) is 26.0%; in series [2] (pH 7.0, 5.0 hrs), 6.9%; in series [2] (pH 7.0, 10.0 hrs), 0.0%; in series [3] (pH 9.5, 0.5 hrs), 51.5%; in series [3] (pH 9.5, 1.0 hrs), 46.4%; in series [3] (pH 9.5, 2.5 hrs), 39.6%. In addition, the “Percent Halogen Remaining” value in series [3] (pH 9.5, 4.2 hrs) is on record as 39.6%; in series [3] (pH 9.5, 7.5 hrs), 36.2%; in series [3] (pH 9.5, 24.0 hrs), 31.3%; in series [3] (pH 9.5, 76.5 hrs), 21.5%.

For the origin of these results see patent US5126057A, “Disinfecting with N,N'-dihaloimidazolidin-4-ones” (Auburn Research Foundation, priority 1991, dated 1992).
